Measured values reported in patent US20240327415A1, “Multicomponent Complexes, Including Salts, Crystalline Forms, and Hydrates and Solvates of ENT1 Inhibitors” (iTeos Belgium SA, priority 2023, published 2024).

Tests used:
ENT1 = molecular target: T1, ENT1 (Homo sapiens, UniProt Q99808); test: ENT1 activity: intracellular uptake of 5-Ethynyl-Uridine (5EU) in whole blood, CD19 positive cells, flow cytometry; assay type: cell-based; conditions: 5EU 60 min at 37° C.
T1 construct: endogenous in cells; host or cells: CD19-positive cells (B cells) in whole blood from healthy donors
T1 sequence (Q99808 1-456): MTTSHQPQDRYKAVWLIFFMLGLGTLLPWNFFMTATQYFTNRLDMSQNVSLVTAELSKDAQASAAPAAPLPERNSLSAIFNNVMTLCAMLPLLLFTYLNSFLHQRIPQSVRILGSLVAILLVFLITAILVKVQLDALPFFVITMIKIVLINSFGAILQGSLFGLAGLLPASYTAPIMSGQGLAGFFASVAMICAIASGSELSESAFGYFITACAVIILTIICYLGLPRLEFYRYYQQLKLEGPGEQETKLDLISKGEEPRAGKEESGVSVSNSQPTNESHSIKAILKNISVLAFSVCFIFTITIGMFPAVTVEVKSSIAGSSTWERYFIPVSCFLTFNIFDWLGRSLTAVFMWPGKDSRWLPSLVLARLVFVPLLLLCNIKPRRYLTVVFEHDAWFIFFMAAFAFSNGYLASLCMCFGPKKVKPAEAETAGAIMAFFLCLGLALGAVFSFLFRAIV
Method: Example 20-ENT1 Activity of Crystalline Form 2 Compound 1 di(hydrogen sulfate) trihydrate compared to Compound 1 (free base)-Initial and after Six-Month Storage: (1) Initial time: Whole blood from 8 healthy donors was incubated with 5-Ethynyl-Uridine (5EU, CAS #: 69075-42-9, Jena Bioscience) for 60 min at 37° C., in the absence or presence of freshly suspended 1 μM Compound 1 (free base) or 1 μM Form 2 Compound 1 di(hydrogen sulfate) trihydrate. Intracellular uptake of 5EU through ENT1 transporters was assessed by standard flow cytometry and ENT1 activity was determined.
In FIG. 101, the data are expressed as % of ENT1 activity in untreated CD19 cells, arbitrary set at 100%, and are the means±SD of three independent experiments. Statistical analysis was performed using one-way analysis of variance (ANOVA) followed by Tukey's post hoc analysis with Prism 10.1.2 software (GraphPad Software). *: p<0.0001 vs. untreated B cells; ns: non-significant.
(2) Six months: Compound stability was evaluated on suspended solutions of Compound 1 (free base) or Form 2 Compound 1 di(hydrogen sulfate) trihydrate that were stored at −20° C. for 6 months. On the day of the experiment, whole blood from 3 healthy donors was incubated with 5-Ethynyl-Uridine (5EU, CAS #: 69075-42-9, Jena Bioscience) for 60 min at 37° C., in the absence or presence of either 1 μM Compound 1 (free base) or 1 μM Form 2 Compound 1 di(hydrogen sulfate) trihydrate of 6-month-old solutions. Intracellular uptake of 5EU through ENT1 transporters was assessed by standard flow cytometry and ENT1 activity was determined.
In FIG. 102, the data are expressed as % of ENT1 activity in untreated CD19 cells, arbitrary set at 100%, and are the means±SD. Statistical analysis was performed using two-way analysis of variance (ANOVA) with Prism 10.1.2 software (GraphPad Software). *: p<0.05 vs. untreated B cells; **: p<0.01 vs. untreated B cells; ns: non-significant.

[1] = particle size distribution (Mastersizer 2000); assay type: physicochemical
Method: In Example 5, the particle size distribution of solids was measured using a Mastersizer 2000 instrument and the method is detailed below.

[2] = pH solubility studies in buffers and biorelevant media (Example 16); assay type: physicochemical; set-up: key: M4: Crystalline Form 4 mono(hydrogen sulfate); Crystalline Form 2 di(hydrogen sulfate) trihydrate; Amorphous; conditions: pH 6.8 (Phosphate), 24 h
Method: Example 16—pH Solubility Studies—(1) Crystalline Form 2 Compound 1 di(hydrogen sulfate) trihydrate, (2) Crystalline Form 3 Compound 1 di(hydrogen sulfate), and (3) Crystalline Form 4 Compound 1 mono(hydrogen sulfate): pH solubility studies were carried out on the prepared crystalline Form 2 Compound 1 di(hydrogen sulfate) trihydrate, crystalline Form 3 Compound 1 di(hydrogen sulfate) and crystalline Form 4 Compound 1 mono(hydrogen sulfate) in the following media: (1) HCl/KCl, pH 1.2; (2) Acetate, pH 4.5; (3) Phosphate, pH 6.8; (4) FaSSIF; (5) FeSSIF; and (6) FaSSGF. Slurries of the hydrogen sulfate forms were prepared in the appropriate medium and stirred at 25° C. For the experiments in the buffer media, the pH of the slurry samples was measured and adjusted as required after 1 hour and 23 hours of the slurrying. Additional solid was added where dissolution was observed post-adjustment. The pH of the samples in the biorelevant media was measured at the 23 hour timepoint. No pH adjustment was made for the biorelevant media. After a total of 24 hours of slurrying, the mother liquors were extracted via centrifugation, and the concentrations and solution purity were determined by HPLC. The residual solids were isolated and analyzed by XRPD and are shown in FIG. 77, FIG. 78, and FIG. 79. The assessment was repeated for some of the samples, where required.

[3] = After complete equilibration, 3 days post-drying (moisture content = 6.07%)
[4] = Before complete equilibration, 24 hr post-drying (moisture content = 4.33%)

In the case of `CCCN1CCNCCCNC(=O)c2cc(OC)c(OC)c(c2)OCCC[C@@H](OC(=O)c2cc(OC)c(OC)c(OC)c2)CC1`, the “decrease of ENT1 activity compared to untreated CD19 positive cells” value (ENT1; 1 μM of solutions stored at −20° C. for 6 months, whole blood from 3 healthy donors) is reported as 30.4%, the “decrease of ENT1 activity compared to untreated CD19 positive cells” value (ENT1; 1 μM, freshly suspended, whole blood from 8 healthy donors) is reported as 43.9% and the D10 [1, 3] is reported as 6.32 μm. It also gave a D50 [1, 3] of 32.90 μm, a D90 [1, 3] of 84.73 μm and a D10 [1, 4] of 17.596 μm. The D50 [1, 4] was 46.785 μm, the D90 [1, 4] was 109.799 μm and the “XRPD of residual solids” value ([2]; attempt 1, 25° C.) was “A”. For the same molecule, the “XRPD of residual solids” value ([2]; attempt 2, 25° C.) was “A”.
